Laboratory results from US6562820B2, “Method for treatment and prevention of mastitis” (Pharmacia & Upjohn Company, priority 2000, dated 2003).

Key:
Assay type in all cases: in vivo
[1] = tested on: cow in lactation with moderate mastitis; assay: Treatment of mastitis in a lactating cow with oxazolidinone plus bovine lactoferrin by intramammary infusion; conditions: 3-lactation cow in lactation, 300 mg in combination with 3 g bovine lactoferrin once per day for 5 consecutive days, composite suspension
Method: A 3-lactation cow in lactation with moderate mastitis is administered 300 mg of the oxazolidinone in EXAMPLE 2 in combination with administration of 3 g of bovine lactoferrin, once per day for 5 consecutive days. The oxazolidinone and the lactoferrin are prepared in a composite suspension formulation and administered by intramammary infusion.

cow without mastitis = assay: Prevention of mastitis in a cow at the start of dry off period by intramammary infusion; conditions: 2-lactation cow without mastitis, single dose of 250 mg at start of dry off period, solution, mastitis occurs in untreated dry cows of same herd
Method: A 2-lactation cow without mastitis is administered a single dose of 250 mg of the oxazolidinone in EXAMPLE 2 at the start of dry off period. The oxazolidinone is formulated as a solution and administered by intramammary infusion. Although mastitis occurs in other dry cows that are in the same herd but are not treated with the oxazolidinones, the cow treated is not infected.

[2] = tested on: cow in dry period with moderate mastitis; assay: Treatment of mastitis in a dry-period cow by intramammary infusion; conditions: 3-lactation cow in dry period, 300 mg once per day for 5 days, solution
Method: A 3-lactation cow in dry period with moderate mastitis is administered 300 mg of the oxazolidinone in EXAMPLE 1, once per day for 5 days. The oxazolidinone is formulated as a solution and administered by intramammary infusion.

SMILES	mastitis status at the end of the treatment [1]	occurrence of mastitis infection in treated cow (cow without mastitis)	mastitis status at the end of the treatment [2]
CC(=O)NC[C@H]1CN(c2ccc(N3CCSCC3)c(F)c2)C(=O)O1 [EXAMPLE 2, N-[[(5S)-3-[3-fluoro-4-(4-thiomorpholinyl)phenyl]-2-oxo-1,3-oxazolidin-5-yl]methyl]acetamide]	the mastitis is gone	not infected	
CC(=O)NC[C@H]1CN(c2ccc(N3CCOCC3)c(F)c2)C(=O)O1 [EXAMPLE 1, (S)-N-[[3-[3-fluoro-4-(4-morpholinyl)phenyl]-2-oxo-5-oxazolidinyl]methyl]acetamide]			the mastitis is gone
